The test system of data set [1] is DU145. Description: MTT cell proliferation assay. Format: cell-based, human. The note with it: 0.5 mg/ml Etn, 48 h; range given for PC-3, DU145 and C4-2B together. The protocol:
(§1) After 48 h, drug containing medium was replaced by medium containing MTT (tetrazolium bromide) at a concentration of 0.5 mg/ml. The yellow tetrazolium salt is reduced to insoluble purple formazan by viable cells. After 4 h of incubation in dark, formazan crystals produced by viable cells were dissolved by 200 μl DMSO and the amount of formazan crystals formed was quantified by recording the absorbance at 570 nm using multi-well plate reader. […] After 10 days, colonies were fixed with 4% formaldehyde, stained with crystal violet and counted.
A general note: Tetrazolium dyes change colour on reduction, which living cells bring about.

The test system of the next data set is CK KD PC-3 cells. Description: MTT assay in choline kinase knock down cells (siRNA). Format: cell-based. The following applies: Homo sapiens, PC-3, 48 h; read-out: decrease in cell viability. The source says: (Panel D) Choline kinase expression in prostate cancer cell lines (PC-3, DU145 and C42B) and normal prostate cell line (RWPE-1). GAPDH was used as a loading control. (Panel E) Scatter-plot comparing choline kinase expression in normal and cancer tissue from prostate cancer patients (p=0.002). The p value for statistical significance was set up as 0.05, while the fold change was defined as mean of all individual data points of analyzed datasets. (Panel Fi) Micrographs showing immunohistochemical staining of choline kinase enzyme in normal and cancer tissue from prostate cancer patients. (Panel Fii) Quantification (composite score) of choline kinase expression in normal and cancer tissue from prostate cancer patient. Five normal and five cancer tissue cases on TMA were scored for choline kinase staining percentage and intensity and composite scores were calculated using two parameters. As shown in these figures, choline kinase enzyme is highly expressed in cancer tissue as opposed to normal tissue.
A siRNA approach was further employed to confirm the role of CK in Etn-induced cell death.

Another data set relates to OVCAR-5. Description: MTT cell proliferation assay. The note with it: Homo sapiens, 48 h, pH 7.4. Format: cell-based. The protocol:
as §1

For a further data set, the system named is MDA-MB-468. Description: MTT cell proliferation assay. The format is cell-based. The note with it: Homo sapiens, 48 h, pH 7.4. The protocol:
as §1

Another data set deals with CFPAC-1. The data set can be described thus: MTT cell proliferation assay. The following applies: Homo sapiens, 48 h, pH 7.4. The format is cell-based. The protocol:
as §1

Another data set concerns C4-2B. Description: MTT cell proliferation assay. Format: cell-based. The following applies: 0.5 mg/ml Etn, 48 h; range given for PC-3, DU145 and C4-2B together. The protocol: as §1
In data set [2] the test system is DU145. The data set can be described thus: DU145 prostate tumor xenograft. The following applies: 40 mg/kg Etn, oral gavage, 4 weeks.
Another data set deals with PC-3-luc tumors. The data set can be described thus: Glucose and glutamine contents in tumors (LC-MS/MS). The following applies: 40 mg/kg Etn-treated tumors vs untreated control.
The nature of data set [3]: Stability in simulated gastric fluid (SGF). The note with it: 10 μM, SGF pH 1.2, over 1 h. Format: in vitro ADME. The protocol: Samples (100 μl) were drawn at 0, 15, 30 and 60 min from SGF reaction-vials and at 0, 30, 60 and 120 min from SIF reaction-vials, quenched with acetonitrile, vortex-mixed, and centrifuged before supernatant analysis by LC-MS/MS analysis. […] For PK studies, a sparse sampling design with 3 mice per time point was used to collect blood samples at 5, 10, 15, 30 min and 1, 2, 3, 4, 5 and 6 h in K2EDTA-coated tubes. The pharmacokinetic parameters (AUClast, Cmax, CL and Vss) were calculated using non-compartmental analysis tool of Phoenix WinNonlin software (version 6.3).
Given the extreme pH and various digestive enzymes, the GI tract presents a harsh environment to any ingested xenobiotic. Thus, many potential drug candidates are degraded in the GI tract, explaining their decreased bioavailability or inability to reach the target at effective concentrations. Simulated gastric fluid (SGF; pH 1.2) and simulated intestinal fluid (SIF; pH 6.8) closely mimic the GI tract environment and are amenable in vitro systems to evaluate degradation of a compound in GI tract (US Pharmacopoia).
Simulated gastric fluid was prepared as per U.S. Pharmacopeia (USP) methods. Sodium chloride (2 g) and pepsin (3.2 g, from porcine stomach mucosa) were dissolved in 7.0 ml hydrochloric acid and Milli-Q water to make up the volume to 1000 ml and the pH was adjusted to 1.2. […]

A further data set concerns PC-3 cells. Description: Intracellular levels of Etn and PhosE by LC-MS/MS. The format is cell-based, human. The note with it: 1 mg/ml, 48 h, pH 7.4.
Data set [4] relates to p53, p21, Bax, pBcl-2, c-PARP, Bim, Bid, HIF1-α. The data set can be described thus: Immunoblot of PC-3-luc tumor lysates. Format: in vivo, mice. The protocol:
OCR was measured using an oxygen electrode.
Since p21, Bax and pBcl2 are downstream effectors of p53, p53 expression levels were examined in control and Etn-treated tumors, as well as control and Etn-treated PC-3 cells.
To test this hypothesis, HIF1-α expression levels were analyzed in Etn-treated tumors and PC-3 cells. […] DMOG, an HIF1-α activator, was then employed to test whether Etn-mediated cell death in PC-3 cells was associated with HIF1-α stabilization (active HIF1-α signaling).
Proteins were resolved by polyacrylamide gel electrophoresis and transferred onto polyvinylidene difluoride membranes (Millipore, Billerica, Mass., USA). The membranes were blocked in Tris-buffered saline containing 0.05% Tween-20 and 5% fat-free dry milk and incubated first with primary antibodies and then with horseradish peroxidase-conjugated secondary antibodies. Specific proteins were visualized with enhanced chemiluminescence detection reagent according to the manufacturer's instructions (Pierce Biotechnology, Rockford, Ill., USA).
(In western blotting, separated proteins are transferred to a membrane and probed.)

The subject of the next data set is RWPE-1. Description: MTT cell proliferation assay, normal prostate cells. The format is cell-based. The note with it: 0.5 mg/ml Etn, 48 h. As for the experimental part:
as §1

Another data set deals with CYP2C19 (Homo sapiens, UniProt P33261). Description: CYP inhibition in human liver microsomes. A general note: Microsomes from liver hold many membrane-bound enzymes, among them those of drug oxidation.

The structures appear in SMILES notation. In brackets after ≈: the same amount, converted by molar mass. Some results are limits rather than exact numbers.

CYP2C19, sequence (P33261 whole entry): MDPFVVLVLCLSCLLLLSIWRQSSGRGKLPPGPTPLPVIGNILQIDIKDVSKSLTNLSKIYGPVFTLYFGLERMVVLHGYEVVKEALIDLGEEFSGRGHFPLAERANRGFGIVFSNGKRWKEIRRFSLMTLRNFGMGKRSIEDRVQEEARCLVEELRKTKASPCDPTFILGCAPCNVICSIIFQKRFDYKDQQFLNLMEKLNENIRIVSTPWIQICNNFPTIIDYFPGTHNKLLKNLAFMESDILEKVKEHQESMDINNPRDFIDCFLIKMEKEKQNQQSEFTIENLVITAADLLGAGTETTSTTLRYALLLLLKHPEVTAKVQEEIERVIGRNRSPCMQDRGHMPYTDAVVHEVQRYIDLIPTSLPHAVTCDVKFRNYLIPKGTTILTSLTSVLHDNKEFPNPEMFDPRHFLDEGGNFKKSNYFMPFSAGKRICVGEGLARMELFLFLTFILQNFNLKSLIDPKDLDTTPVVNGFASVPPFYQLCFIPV

On to `NCCO` [Etn, monoethanolamine], for which the reduction of survival in the data set with DU145 [1] is given as 30-52%; in the data set with C4-2B, 30-52%; in the data set with RWPE-1, “remained unaffected”. In addition, the cytotoxicity at 500 µg/mL with CK KD PC-3 cells was ~11%. Further, the IC50 (commonly the point on the concentration scale where inhibition reaches its midpoint) with OVCAR-5 is 290 µg/mL (≈ 4.75 mM); in the data set with MDA-MB-468, 550 µg/mL (≈ 9 mM); with CFPAC-1, 1900 µg/mL (≈ 31.1 mM); against CYP2C19 it was > 100 µM. Besides, in the data set with DU145 [2], the “reduction in tumor volume” value is given as ~42%. The “reduction in tumor weight” value in the data set with DU145 [2] was ~29%. The “glucose and glutamine contents” value with PC-3-luc tumors is “significantly reduced”. Moreover, in [3], the “stability in SGF” value is “stable”. In addition, the “increase in intracellular PhosE levels compared to control cells” value in the data set with PC-3 cells was ~40 fold. For the same compound, in data set [4] (40 mg/kg Etn-treated mice), the “expression of cell-cycle and apoptotic markers in tumor lysates” value is “upregulated p21, Bax, pBcl2 c-PARP, Bim and Bid”. Moreover, the “p53 protein level in tumors” value in [4] (40 mg/kg Etn-treated mice) is “higher levels of p53 protein than untreated control tumors”. Moreover, in data set [4] (Etn-treated tumors relative to untreated control tumors), the “HIF1-α protein expression in tumors” value is reported as “Downregulation of HIF1-α protein expression”.

(Values after US11607421B2, “Ethanolamine-based lipid biosynthetic compounds, method of making and use thereof” (Metanoi Therapeutics, Inc., priority 2016, dated 2023).)
